“Also recorded” adds a separate entry of the source. Where two headings read alike, the source gives them in different places.
What was measured:
SOAS2 (Bone) tumor cells = assay: alamarBlue growth inhibition, SOAS2; format: cell-based, human; conditions: 120 hours
Protocol: (§1) Growth Inhibition Studies. Cells growing exponentially were transferred to 384-well flat bottom tissue culture plates. All cell types were plated at a density of 500 cells per well in 25 μL of complete medium (RPMI 1640+10% fetal bovine serum+antibiotics/antimycotics). After 24 hours (day 0), 25 μL of complete medium containing the experimental compounds over the dose range of 10^ñ3 to 10^ñ10 M were added in triplicate. […] 5 μL of the redox indicator, alamarBlue, was added to each well (10% v/v). After 4 hours incubation at 37° C., fluorescence was monitored at 535 nm excitation and 595 nm emission.
(§2) Concentration vs. relative fluorescence units (RFU) were plotted, and sigmoid curves were fit using the Hill equation.

[1] = test system: SW620 (Colon) tumor cells; assay: alamarBlue growth inhibition, SW620; format: cell-based, human; conditions: 120 hours
Protocol: as §1, §2

NHLF (Lung) normal cells = assay: alamarBlue growth inhibition, NHLF; format: cell-based, human; conditions: 120 hours
Protocol: as §1, §2

A431 (Skin) tumor cells = assay: alamarBlue growth inhibition, A431; format: cell-based, human; conditions: 120 hours
Protocol: as §1, §2

[2] = test system: NCI H520 (Lung) tumor cells; assay: alamarBlue growth inhibition, NCI H520; format: cell-based, human; conditions: 120 hours
Protocol: as §1, §2

[3] = test system: H630R10 5FU-resistant colon tumor cells; assay: alamarBlue growth inhibition, H630R10; format: cell-based, human
Protocol: as §1, §2

TS in intact RKO cells = biological target: T1, TS in intact RKO cells (Homo sapiens, UniProt P04818); assay: TS activity in intact cells by tritium release; format: cell-based; conditions: release of [^3H]2O from 5-[^3H]deoxyuridine
T1 construct: endogenous in cells; host or cells: RKO cells
Protocol: TS activity was measured in intact RKO cells by release of [^3H]2O from 5-[^3H]deoxyuridine as described in Materials and Methods. NB1011 was washed out of cells by replacing with fresh media, incubating for 60 minutes at 37 ° C., then repeating this procedure. Control and untreated cells were subjected to the same washing procedure.
TS Activity Assay by Tritium Release from dUMP-^3H. Cells were plated in 24 well plates to a density of 30,000 cells/plate and incubated for 16 hours to allow adhesion to the plastic surface of the plate.
Immediately prior to the thymidylate synthase assay, the media was replaced with RPMI+10% dialyzed fetal calf serum. 0.5 μCi of 5-[^3H]deoxyuridine was added to each well, and plates were incubated for 60 minutes at 37° C. without additional CO2. [^3H] release was measured by adsorbing 5-[^3H]deoxyuridine to activated charcoal (10% in 1×PBS) for 5 minutes at room temperature. After centrifugation for 5 minutes at 13,000 RPM, the amount of [^3H] in the supernatant was determined by liquid scintillation counting.
The results described above indicate that BVdUMP, generated intracellularly from NB1011, is unlikely to inactivate TS during its transformation to product(s). […] In these experiments exogenous 5-(3H) deoxyuridine is added to cell culture medium and the release of tritiated water is monitored (Carreras, C. W. and Santi, D. V. (1995) and Roberts (1966)). […]

[4] = test system: H630 colon cancer cells, TDX selection; assay: alamarBlue cytotoxicity, H630 TDX-selected; format: cell-based, human; conditions: Drug Selection TDX, read-out: NB1011-IC50
Protocol: as §1, §2
(§3) Cells were grown and characterized as described above. TS expression level is relative to CCD18co, a normal colon epithelial cell line. Tritium release is background substracted as described in Methods. ND=Not detectable above background.

[5] = test system: HT1080 (Colon) tumor cells; assay: alamarBlue growth inhibition, HT1080; format: cell-based, human; conditions: 120 hours
Protocol: as §1, §2

[6] = test system: CCD18co normal colon epithelial cells; assay: alamarBlue growth inhibition, CCD18co; format: cell-based, human
Protocol: as §1, §2

[7] = test system: NPRSC (Prostate) normal cells; assay: alamarBlue growth inhibition, NPRSC; format: cell-based, human; conditions: 120 hours
Protocol: as §1, §2

NHDF (Skin) normal cells = assay: alamarBlue growth inhibition, NHDF; format: cell-based, human; conditions: 120 hours
Protocol: as §1, §2

MRC9 (Lung) normal cells = assay: alamarBlue growth inhibition, MRC9; format: cell-based, human; conditions: 120 hours
Protocol: as §1, §2

[8] = test system: normal and tumor cell types; assay: cells; conditions: for IC50: read-out: IC50 (μM), Average
Protocol: Growth Inhibition Studies. Cells growing exponentially were transferred to 384-well flat bottom tissue culture plates. All cell types were plated at a density of 500 cells per well in 25 μL of complete medium (RPMI 1640+10% fetal bovine serum+antibiotics/antimycotics). After 24 hours (day 0), 25 μL of complete medium containing the experimental compounds over the dose range of 10^ñ3 to 10^ñ10 M were added in triplicate. Drug exposure time was 120 hours (day 5), after which growth inhibition was assayed. 5 μL of the redox indicator, alamarBlue, was added to each well (10% v/v). After 4 hours incubation at 37° C., fluorescence was monitored at 535 nm excitation and 595 nm emission.
as §2
Assays were carried out as described in Methods, above. Therapeutic index is calculated as the ratio of the average IC50 for normal cells to the average IC50 for tumor cells. All assays were done at least three times.

N1S1 cells = assay: alamarBlue cytotoxicity, N1S1 parental; format: cell-based; conditions: N1S1, Drug Selection None; read-out: NB1011-IC50
Protocol: as §1, §2, §3

[9] = test system: RKO colon cancer cells, TDX selection; assay: alamarBlue cytotoxicity, RKO TDX-selected; format: cell-based, human; conditions: Drug Selection TDX, read-out: NB1011-IC50
Protocol: as §1, §2, §3

[10] = test system: COLO205 (Colon) tumor cells; assay: alamarBlue growth inhibition, COLO205; format: cell-based, human; conditions: 120 hours
Protocol: as §1, §2

[11] = test system: MCIxc (Brain) tumor cells; assay: alamarBlue growth inhibition, MCIxc; format: cell-based, human; conditions: 120 hours
Protocol: as §1, §2

[12] = test system: MCF7 (Breast) tumor cells; assay: alamarBlue growth inhibition, MCF7; format: cell-based, human
Protocol: as §1, §2

[13] = test system: MDAMB468 (Breast) tumor cells; assay: alamarBlue growth inhibition, MDAMB468; format: cell-based, human; conditions: 120 hours
Protocol: as §1, §2

[14] = test system: PANC1 (Pancreas) tumor cells; assay: alamarBlue growth inhibition, PANC1; format: cell-based, human; conditions: 120 hours
Protocol: as §1, §2

T1 sequence (P04818 2-313 limits assumed): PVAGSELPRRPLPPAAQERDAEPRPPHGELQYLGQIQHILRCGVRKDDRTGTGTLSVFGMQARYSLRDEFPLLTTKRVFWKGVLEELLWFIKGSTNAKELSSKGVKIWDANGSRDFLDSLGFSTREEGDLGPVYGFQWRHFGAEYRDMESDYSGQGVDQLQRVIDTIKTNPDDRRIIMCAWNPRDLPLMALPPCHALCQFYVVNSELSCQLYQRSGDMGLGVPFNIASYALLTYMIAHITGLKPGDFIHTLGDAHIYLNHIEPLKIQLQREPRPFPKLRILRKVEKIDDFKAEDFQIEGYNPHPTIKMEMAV

For “5-(2-Bromovinyl)-2′-deoxyuridine phenyl N-methoxy-L-alaninyl phosphoramidate [NB1011]”, the IC50 (SOAS2 (Bone) tumor cells) was 232 µM, the IC50 [1] was 374 µM and the IC50 (NHLF (Lung) normal cells) was 139 µM. It also gave an IC50 (A431 (Skin) tumor cells) of 266 µM, an IC50 [2] of 135 µM and an IC50 ([3]; H630 Colon cancer, Drug Selection 5FU, read-out: NB1011-IC50) of 65 µM. For the same substance, the “NB1011 activity diminished, compared to NB1011 alone” value ([3]; H630R10, in the presence of 3 μM LV, alamarBlue) was “more than 90%”, the IC50 ([3]; H630R10, comparison with 5FUdR, read-out: IC50) was 217 µM and the IC50 ([3]; Tumor Cells: H630R10 (Colon), alamarBlue, 120 hours, read-out: IC50) was 65 µM. The “effect on TS activity in intact cells after wash-out” value (TS in intact RKO cells) was “completely reversible; also recorded: does not irreversibly inactivate the TS enzyme”, the IC50 [4] was 2.3 µM and the IC50 [5] was 449 µM. It also gave an IC50 ([6]; Normal Cells: CCD1800 (Colon), alamarBlue, 120 hours) of 562 µM, an IC50 ([6]; normal colon epithelial cells (CCD18co), comparison with 5FUdR) greater than 2500 µM and an IC50 [7] of 369 µM. For the same substance, the IC50 (NHDF (Skin) normal cells) was 359 µM, the IC50 (MRC9 (Lung) normal cells) was 303 µM and the “improvement in therapeutic index as compared with 5-FU” value ([8]; (2)×(3)) was 6 fold. For the same substance, the “more cytotoxic to tumor cells vs. normal cells” value ([8]; overall, panel) was “about 2 fold”, the IC50 ([8]; average of the 11 normal cell types) was 561 µM and the IC50 ([8]; average of the 21 tumor cell lines) was 288 µM. It also gave an IC50 (N1S1 cells) of 494 µM, an IC50 [9] of 28 µM and an IC50 [10] of 105 µM. It also gave an IC50 [11] of 61 µM, an IC50 ([12]; MCF7, alamarBlue, read-out: IC50) of 291 µM and an IC50 ([12]; MCF7 Breast cancer, Drug Selection None, read-out: NB1011-IC50) of 327 µM. It also gave an IC50 ([12]; Tumor Cells: MCF7 (Breast), alamarBlue, 120 hours, read-out: IC50) of 141 µM, an IC50 [13] of 172 µM and an IC50 [14] of 492 µM.
